Laboratory results taken from paper PMC9403717, “Ruthenium complexes show potent inhibition of AKR1C1, AKR1C2, and AKR1C3 enzymes and anti-proliferative action against chemoresistant ovarian cancer cell line” (Frontiers in Pharmacology, 2022).
Where a chain is given by its changes, count along the chain named. Read-outs that look alike come from different tables or passages of the source.

Legend:
[1] = target: T1, AKR1C2 (Homo sapiens, UniProt P52895); assay: Inhibition of recombinant AKR1C2, oxidation of 1-acenaphthenol, progress-curve analysis; assay type: biochemical; conditions: for k+3: irreversible binding of second inhibitor molecule to E-NADH-I; for fold less efficient inhibition of AKR1C2 compared to AKR1C1: from K3 values; for k+2: irreversible binding of second inhibitor molecule to E-NAD-I
T1 construct: made in house
T1 sequence (P52895 1-323): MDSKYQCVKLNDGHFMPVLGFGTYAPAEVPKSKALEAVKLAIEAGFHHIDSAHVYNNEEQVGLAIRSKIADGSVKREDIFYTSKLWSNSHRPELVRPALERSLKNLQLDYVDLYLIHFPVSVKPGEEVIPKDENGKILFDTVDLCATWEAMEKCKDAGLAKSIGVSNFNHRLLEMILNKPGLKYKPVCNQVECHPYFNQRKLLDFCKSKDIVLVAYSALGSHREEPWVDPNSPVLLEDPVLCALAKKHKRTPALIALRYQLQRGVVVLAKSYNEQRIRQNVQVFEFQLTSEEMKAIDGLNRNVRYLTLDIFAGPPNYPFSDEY
Procedure: (§1) To investigate the effect of ten selected ruthenium compounds, we measured their effect on the time course of oxidation of the artificial substrate 1-acenaphtenol by recombinant enzymes AKR1C1–3. The recombinant enzymes AKR1C1–AKR1C3 were prepared as described previously ([Brozic et al., 2006]). Since the artificial substrate is racemic, the oxidation follows a double exponential pattern as described previously ([Traven et al., 2015]). The in vitro catalytic activity of AKR1C1–3 enzymes was determined spectrophotometrically by monitoring the increase in NADH absorbance at 340 nm (ε(λ340) = 6220 M^−1cm^−1) in the presence of the substrate 1-acenaphthenol. Enzymatic reactions (300 µL) were performed in 100 mm potassium phosphate buffer (pH 9.0), 0.005% (v/v) TritonX-114, 5% (v/v) DMSO, containing 2.3 mm NAD^+ and 1-acenaphthenol at final concentrations of 90, 180, and 250 µM for AKR1C1, AKR1C2, and AKR1C3, respectively. A total of 5 µL of a tested compound in DMSO was added to the reaction mixture. The final concentrations of the tested compounds ranged from 1 to 200 μM, depending on the extent of inhibition (Supplementary Data). The reaction was started by adding 15 µL of AKR1C1, AKR1C2, or AKR1C3 dissolved in 1x PBS (pH 7.3) at final concentrations of 0.11, 0.16, and 1.5 µM, respectively. AKR1C1–3 activity was measured at 37°C for 3 h without shaking using a PowerWave XS microplate reader (Biotek; Winooski, VT, United States). Measurements at seven different concentrations were performed in duplicates or triplicates (Supplementary Figures S2). To mechanistically explain all the obtained progress curves for each ruthenium complex on each enzyme by a common reaction scheme, we extended the originally proposed scheme so that the interaction of the ruthenium complex with apo- and holoenzyme was allowed to be rapid and followed by a slow irreversible association of a second ruthenium complex molecule. However, the affinity of the Ru complexes for the apoenzymes was much lower so this part was excluded from the proposed kinetic model for clarity (Figure 4).
(§2) FIGURE 4 Reaction scheme for the oxidation of 1-acenaphtenol by AKR1C1-3 and its inhibition by ruthenium compounds. E represents apoenzyme, E-NAD and E-NADH represent holoenzyme with bound NAD^+ and NADH, respectively. A and B are enantiomers of substrate 1-acenaphtenol. Symbols which include I (ruthenium compound) represent holoenzyme in complex with one or two inhibitor molecules. KNAD, KNADH, and K2-3 are equilibrium constants and k+2–3 are second-order association rate constants for the binding of the second inhibitor molecule to the enzyme. The progress curves for each enzyme in the presence of ruthenium complexes were analyzed by the WEB server ENZO (https://enzo.cmm.ki.si/) designed exactly for such purposes ([Bevc et al., 2011]).

[2] = target: T2, AKR1C1 (Homo sapiens, UniProt Q04828); assay: Inhibition of recombinant AKR1C1, oxidation of 1-acenaphthenol, progress-curve analysis; assay type: biochemical; conditions: for k+3: irreversible binding of second inhibitor molecule to E-NADH-I; for k+2: irreversible binding of second inhibitor molecule to E-NAD-I
T2 construct: made in house
T2 sequence (Q04828 1-323): T1 sequence (P52895 1-323) with V38T, H47R, V54L, S87C, M151V, H170R, L172Q
Procedure: as §1, §2

[3] = AKR1C2, reversible binding to holoenzyme E-NADH, read-out: K3
[4] = reversible binding to holoenzyme E-NADH, read-out: K3
[5] = AKR1C2, reversible binding to holoenzyme E-NAD, read-out: K2
[6] = reversible binding to holoenzyme E-NAD, read-out: K2

Row | SMILES | k+3 ([1]; AKR1C2) [M⁻¹ s⁻¹] | Ki [1, 3] [µM] | fold less efficient inhibition of AKR1C2 compared to AKR1C1 [1] [fold] | k+3 [2] [M⁻¹ s⁻¹] | Ki [2, 4] [µM] | inhibitory effect (in words) ([1]; AKR1C2) | irreversible inhibition (in words) ([1]; AKR1C2) | Ki [1, 5] [µM] | inhibitory effect (in words) [2] | irreversible inhibition (in words) [2] | Ki [2, 6] [µM] | k+2 ([1]; AKR1C2) [M⁻¹ s⁻¹] | k+2 [2] [M⁻¹ s⁻¹]
1 | Cc1ccc(C(C)C)cc1.O=C(C=C([O][Ru][Cl])c1ccc2c(c1)OCO2)C(F)(F)F [Compound 5] | 7.3 | 0.0662 | 2.8 | 6.0 | 0.0235 |  |  |  |  |  |  |  | 
2 | Cc1ccc(C(C)C)cc1.O=[N+]([O-])c1ccc([O][Ru][Cl])c2ncccc12 [Compound 9, (η ^6-p-Cymene) (nitroxolinato)chloridoruthenium (II)] |  |  |  |  |  | very weak inhibitory effect | virtually no irreversible inhibition | 191 | very weak inhibitory effect | virtually no irreversible inhibition | 227 |  | 
3 | C1N2CN3CN1CP(C2)C3.Cc1ccc(C(C)C)cc1.F[P-](F)(F)(F)(F)F.O=[N+]([O-])c1ccc([O][Ru+])c2ncccc12 [Compound 10, (η ^6-p-cymene)(nitroxolinato)(pta)ruthenium(II) hexafluorophosphate] |  |  |  |  |  |  |  | 42.5 |  |  | 49.7 | 5.1 | 13.5
4 | Cc1ccc(C(C)C)cc1.[Cl-].[O-]c1c(I)cc(Cl)c2cccnc12.[Ru+2] [Compound 7] | 11.1 | 0.0654 |  | 17.1 | 0.345 |  |  |  |  |  |  |  | 
5 | C1N2CN3CN1CP(C2)C3.Cc1ccc(C(C)C)cc1.F[P-](F)(F)(F)(F)F.[O-]c1c(I)cc(Cl)c2cccnc12.[Ru+2] [Compound 8] |  |  |  |  |  |  |  | 1.6 |  |  | 0.35 | 929 | 
6 | C1N2CN3CN1CP(C2)C3.Cc1ccc(C(C)C)cc1.F[P-](F)(F)(F)(F)F.O=C(C=C([O][Ru+])c1ccc2c(c1)OCO2)C(F)(F)F [Compound 6] |  |  |  |  |  |  |  | 8.3 |  |  | 3.1 | 172 | 48.8
7 | C1N2CN3CN1CP(C2)C3.Cc1ccc(C(C)C)cc1.F[P-](F)(F)(F)(F)F.O=C(C=C([O][Ru+])c1ccc(I)cc1)C(F)(F)F [Compound 2] |  |  |  |  |  |  |  | 80 |  |  | 2.8 | 12.6 | 25.9
8 | CN(C)c1ccc(C(=CC(=O)C(F)(F)F)[O][Ru][Cl])cc1.Cc1ccc(C(C)C)cc1 [Compound 3, (η^6-p-cymene)chlorido(4,4,4-trifluoro-1-(4-(dimethylamino)phenyl)-1,3-butandionato)ruthenium(II)] | 55.4 | 1.12 | 26 | 4.3 | 0.0429 |  |  | 157 |  |  | 107 | 7.4 | 31.5
9 | Cc1ccc(C(C)C)cc1.O=C(C=C([O][Ru][Cl])c1ccc(I)cc1)C(F)(F)F [Compound 1] | 7.7 | 0.0527 | 2.5 | 9.4 | 0.0214 |  |  | 305 |  |  |  |  | 
